Values of other authors in patent US20260317295A1, “NAV1.8 INHIBITORS, PREPARATION METHOD THEREFOR AND USE THEREOF” (SHANGHAI INSTITUTE OF MATERIA MEDICA, CHINESE ACADEMY OF …, priority 2023, published 2026).

Legend:
Nav1.8 [1] = settings: rodents
Nav1.8 [2] = settings: rat, STZ-induced diabetic neuropathy, intraperitoneal or intraplantar
Nav1.8 [3] = settings: L7-1.8TG transgenic mice

Row | SMILES | pain responses (Nav1.8 [1]) | pain behavioral responses (Nav1.8 [2]) | MS behaviors (Nav1.8 [3])
1 | COc1cc(NC(=O)c2ccc(-c3ccc(Cl)cc3)o2)cc(OC)c1 [Compound A-803467] | effectively alleviate pain responses | dose-dependently alleviate the animals' pain behavioral responses | 
2 | CNC(=O)c1ccc(-c2cc(Cl)cc(Cl)c2Cl)c(N)n1 [PF-01247324] |  |  | alleviate the MS behaviors
